Experimental data reported in patent EP0076478A1, “Linear kinetic determination of bicarbonate in body fluids” (BOEHRINGER MANNHEIM CORPORATION, priority 1981, dated 1983).

Tests used:
Type in all cases: biochemical
LDH = test: Inhibition of reaction III (oxidation of NADH by pyruvate, catalysed by serum LDH) by oxamate; conditions: for NADH oxidized: 10 minutes, 340 nm, 37°C
Experimental: Using the same materials and methodology of the end-point determination described in Example III, the effectiveness of oxamate as an inhibitor of reaction III was determined. First, reaction III was followed by […] of oxamate to serum.with normal and supranormal LDH activities up to 2000 U/1 (one U/1 is an enzyme activity unit which catalyzes the transformation of one micromole per liter of pyruvate per minute at 37°C). In order to magnify the spectrophotometric signal, the sample volume was increased from 7.5 microliters to 50 microliters. The oxidation of NADH was followed for 10 minutes at 340 nm and 37°C, and the concentration of NADH oxidized was calculated from the change in absorbance over the 10 minute period.

PEPC (wheat germ) = test: Separate enzyme assay of PEPC in the presence of varying amounts of oxamate; conditions: for PEPC % Activity: average of three replicates
MDH (porcine heart) = biological target: T1, MDH (porcine heart) (Sus scrofa, UniProt P00346); test: Separate enzyme assay of MDH in the presence of varying amounts of oxamate
T1 construct: purchased Boehringer Mannheim Corporation, Indianapolis, Indiana
T1 sequence (P00346 25-338): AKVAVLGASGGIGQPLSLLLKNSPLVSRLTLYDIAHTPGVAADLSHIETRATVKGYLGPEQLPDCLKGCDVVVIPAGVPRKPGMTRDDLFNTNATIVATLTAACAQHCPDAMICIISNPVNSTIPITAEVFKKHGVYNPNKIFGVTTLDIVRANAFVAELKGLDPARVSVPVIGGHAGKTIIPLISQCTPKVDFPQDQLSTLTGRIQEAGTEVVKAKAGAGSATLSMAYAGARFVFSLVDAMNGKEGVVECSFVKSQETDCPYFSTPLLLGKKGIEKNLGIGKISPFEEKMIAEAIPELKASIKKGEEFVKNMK

[1] = concentrations of oxamate up to 40 mmol/l

NC(=O)C(=O)[O-].[Na+] [oxamate, sodium oxamate] was tested, and the NADH oxidized (LDH; 2.5 mmol/l oxamate, serum LDH 282 U/l, 2 mmol/l pyruvate added) was 0 µmol/L, the NADH oxidized (LDH; 2.5 mmol/l oxamate, serum LDH 334 U/l, 2 mmol/l pyruvate added) was 1.3 µmol/L and the NADH oxidized (LDH; 2.5 mmol/l oxamate, serum LDH 340 U/l, 2 mmol/l pyruvate added) was 1.3 µmol/L. It also gave an NADH oxidized (LDH; 2.5 mmol/l oxamate, serum LDH 402 U/l, 2 mmol/l pyruvate added) of 0 µmol/L, an NADH oxidized (LDH; 2.5 mmol/l oxamate, serum LDH 508 U/l, 2 mmol/l pyruvate added) of 3.5 µmol/L and an NADH oxidized (LDH; 2.5 mmol/l oxamate, serum LDH 600 U/l, 2 mmol/l pyruvate added) of 2.6 µmol/L. For the same compound, the NADH oxidized (LDH; 2.5 mmol/l oxamate, serum LDH 1200 U/l, 2 mmol/l pyruvate added) was 7.7 µmol/L, the NADH oxidized (LDH; 2.5 mmol/l oxamate, serum LDH 1470 U/l, sample not spiked with pyruvate) was 1.0 µmol/L and the NADH oxidized (LDH; 2.5 mmol/l oxamate, serum LDH normal (average of 10 normal sera), 2 mmol/l pyruvate added) was 1.4 µmol/L. It also gave an NADH oxidized (LDH; 5 mmol/l oxamate, serum LDH 282 U/l, 2 mmol/l pyruvate added) of 0 µmol/L, an NADH oxidized (LDH; 5 mmol/l oxamate, serum LDH 334 U/l, 2 mmol/l pyruvate added) of 0.3 µmol/L and an NADH oxidized (LDH; 5 mmol/l oxamate, serum LDH 340 U/l, 2 mmol/l pyruvate added) of 0 µmol/L. It also gave an NADH oxidized (LDH; 5 mmol/l oxamate, serum LDH 402 U/l, 2 mmol/l pyruvate added) of 0 µmol/L, an NADH oxidized (LDH; 5 mmol/l oxamate, serum LDH 508 U/l, 2 mmol/l pyruvate added) of 0.3 µmol/L and an NADH oxidized (LDH; 5 mmol/l oxamate, serum LDH 600 U/l, 2 mmol/l pyruvate added) of 0.2 µmol/L. It also gave an NADH oxidized (LDH; 5 mmol/l oxamate, serum LDH 1200 U/l, 2 mmol/l pyruvate added) of 0.9 µmol/L, an NADH oxidized (LDH; 5 mmol/l oxamate, serum LDH 1470 U/l, sample not spiked with pyruvate) of 0 µmol/L and an NADH oxidized (LDH; 5 mmol/l oxamate, serum LDH normal (average of 10 normal sera), 2 mmol/l pyruvate added) of 0.5 µmol/L. The NADH oxidized (LDH; 10 mmol/l oxamate, serum LDH 282 U/l, 2 mmol/l pyruvate added) was 0 µmol/L, the NADH oxidized (LDH; 10 mmol/l oxamate, serum LDH 334 U/l, 2 mmol/l pyruvate added) was 0 µmol/L and the NADH oxidized (LDH; 10 mmol/l oxamate, serum LDH 340 U/l, 2 mmol/l pyruvate added) was 0 µmol/L. The NADH oxidized (LDH; 10 mmol/l oxamate, serum LDH 402 U/l, 2 mmol/l pyruvate added) was 0 µmol/L, the NADH oxidized (LDH; 10 mmol/l oxamate, serum LDH 508 U/l, 2 mmol/l pyruvate added) was 0.1 µmol/L and the NADH oxidized (LDH; 10 mmol/l oxamate, serum LDH 600 U/l, 2 mmol/l pyruvate added) was 0 µmol/L. The NADH oxidized (LDH; 10 mmol/l oxamate, serum LDH 1200 U/l, 2 mmol/l pyruvate added) was 0.3 µmol/L, the NADH oxidized (LDH; 10 mmol/l oxamate, serum LDH 1470 U/l, sample not spiked with pyruvate) was 0 µmol/L and the NADH oxidized (LDH; 10 mmol/l oxamate, serum LDH 2000 U/l, 2 mmol/l pyruvate added) was 0 µmol/L. The NADH oxidized (LDH; 10 mmol/l oxamate, serum LDH normal (average of 10 normal sera), 2 mmol/l pyruvate added) was 0.3 µmol/L, the NADH oxidized (LDH; 20 mmol/l oxamate, serum LDH 282 U/l, 2 mmol/l pyruvate added) was 0 µmol/L and the NADH oxidized (LDH; 20 mmol/l oxamate, serum LDH 334 U/l, 2 mmol/l pyruvate added) was 0 µmol/L. For the same compound, the NADH oxidized (LDH; 20 mmol/l oxamate, serum LDH 340 U/l, 2 mmol/l pyruvate added) was 0 µmol/L, the NADH oxidized (LDH; 20 mmol/l oxamate, serum LDH 402 U/l, 2 mmol/l pyruvate added) was 0 µmol/L and the NADH oxidized (LDH; 20 mmol/l oxamate, serum LDH 508 U/l, 2 mmol/l pyruvate added) was 0 µmol/L. The NADH oxidized (LDH; 20 mmol/l oxamate, serum LDH 600 U/l, 2 mmol/l pyruvate added) was 0 µmol/L, the NADH oxidized (LDH; 20 mmol/l oxamate, serum LDH 1200 U/l, 2 mmol/l pyruvate added) was 0 µmol/L and the NADH oxidized (LDH; 20 mmol/l oxamate, serum LDH 1470 U/l, sample not spiked with pyruvate) was 0 µmol/L. The NADH oxidized (LDH; 20 mmol/l oxamate, serum LDH 2000 U/l, 2 mmol/l pyruvate added) was 0 µmol/L, the NADH oxidized (LDH; 20 mmol/l oxamate, serum LDH normal (average of 10 normal sera), 2 mmol/l pyruvate added) was 0 µmol/L and the LDH activity (LDH; oxamate concentration of 10-20 mmol/l) was “completely inhibited”. For the same compound, the “PEPC % Activity” value (PEPC (wheat germ); Oxamate 5 mmol/l) was 102 ± 2%, the “PEPC % Activity” value (PEPC (wheat germ); Oxamate 10 mmol/l) was 95 ± 11% and the “PEPC % Activity” value (PEPC (wheat germ); Oxamate 20 mmol/l) was 103 ± 1%. For the same compound, the “PEPC % Activity” value (PEPC (wheat germ); Oxamate 40 mmol/l) was 99 ± 2%, the “PEPC % Activity” value (PEPC (wheat germ); Oxamate 80 mmol/l) was 86 ± 4% and the “effect on PEPC” value (PEPC (wheat germ); [1]) was “no effect”. For the same compound, the “effect on PEPC” value (PEPC (wheat germ); varying amounts of oxamate) was “no significant effect”, the activity at 5000 µM (MDH (porcine heart); Oxamate 5 mmol/l, average of three replicates) was 102 ± 2% and the activity at 10000 µM (MDH (porcine heart); Oxamate 10 mmol/l, average of three replicates) was 102 ± 2%. For the same compound, the activity at 20000 µM (MDH (porcine heart); Oxamate 20 mmol/l, average of three replicates) was 99 ± 1%, the activity at 40000 µM (MDH (porcine heart); Oxamate 40 mmol/l, average of three replicates) was 98 ± 5% and the activity at 80000 µM (MDH (porcine heart); Oxamate 80 mmol/l, average of three replicates) was 92 ± 2%. For the same compound, the “effect on MDH” value (MDH (porcine heart); [1]) was “no effect” and the “effect on MDH” value (MDH (porcine heart); varying amounts of oxamate) was “no significant effect”.
